Results reported in ChEMBL document CHEMBL1129827, “Discovery of imidazo[1,2-c]pyrimidin-5(6H)-one heterosubstituted nucleoside analogues with potent activity against human hepatitis B virus in vitro” (Bioorg Med Chem Lett, 1997).
The source made the active and inactive calls. The rule behind the calls is not given here.

What was measured:
[1] = system: MT4; assay: Compound was evaluated for the inhibition of replication of HIV-1 in MT-4 (human T helper) cells up to 300 uM; Not active; type: functional, cell-based
[2] = system: HepG2; assay: Compound concentration required to inhibit 50% of extracellular replicating HBV (Hepatitis B virus) virion in human hepatoma cell line 2.2.15; type: functional, cell-based
[3] = Selectivity index (SI) is the ratio of CC50/EC90 for HBV RI; type: functional
[4] = Selectivity index (SI) is the ratio of CC50/EC90 for HBV virion; type: functional
[5] = system: HepG2; assay: Compound concentration required to inhibit 50% of intracellular replicating HBV (Hepatitis B virus) RI in human hepatoma cell line 2.2.15; type: functional, cell-based
[6] = system: HepG2; assay: Compound concentration required to inhibit 90% of intracellular replicating HBV (Hepatitis B virus) RI in human hepatoma cell line 2.2.15; type: functional
[7] = Compound concentration that cause 50% cytotoxicity was determined by neutral red uptake in 2.2.15 Cells; type: cell-based, HepG2 2.2.15; conditions: human
[8] = system: HepG2; assay: Compound concentration required to inhibit 90% of extracellular replicating HBV (Hepatitis B virus) virion in human hepatoma cell line 2.2.15; type: functional
[9] = system: MT4; assay: Compound was evaluated for the inhibition of replication of HIV-1 in MT-4 (human T helper) cells up to 300 uM; not active; type: functional, cell-based

Compound	Activity [1]	EC50 [2]	SI [3]	SI [4]	EC50 [5]	EC90 [6]	CC50 [7]	EC90 [8]	Activity [9]
O=c1n([C@H]2CO[C@H](CO)O2)cc(F)c2nc(-c3ccc([N+](=O)[O-])cc3)cn12	inactive	3.7 µM	24	46	12.8 µM	25 µM	587 µM	8.8 µM	
O=c1n([C@H]2CO[C@@H](CO)O2)cc(F)c2nc(-c3ccc([N+](=O)[O-])cc3)cn12		1.9 µM	103	180	7.7 µM	13.6 µM	1390 µM	5.9 µM	
O=c1n(C2CSC(CO)O2)ccc2nc(-c3ccc([N+](=O)[O-])cc3)cn12 (stereo not given)	inactive	4.8 µM		> 5.6			> 26.7 µM		
O=c1n(C2COC(CO)O2)ccc2nc(CO)cn12 (stereo not given)		2 µM		59			618 µM	10.5 µM	
CCOC(=O)c1cn2c(=O)n(C3CSC(CO)O3)ccc2n1 (stereo not given)		> 90 µM					> 90 µM	> 90 µM	
O=c1n([C@H]2CO[C@@H](CO)O2)ccc2nc(-c3ccc([N+](=O)[O-])cc3)cn12		2.3 µM		45			486 µM	10.9 µM	
O=c1n([C@H]2CO[C@H](CO)O2)cc(F)c2nc(CO)cn12		> 105 µM					1390 µM	> 105 µM	
O=c1n(C2CSC(CO)O2)ccc2nc(CO)cn12 (stereo not given)		77.7 µM		1.7			456 µM	276 µM	inactive
Nc1ccn([C@H]2CC[C@@H](CO)O2)c(=O)n1 [ZALCITABINE]		1.5 µM	23		3.2 µM	10 µM	233 µM	6.9 µM	
O=c1n(C2COC(CO)O2)ccc2nc(-c3ccc(F)cc3)cn12 (stereo not given)		4.2 µM		34			850 µM	25.2 µM	
O=c1n([C@H]2CO[C@H](CO)O2)ccc2nc(-c3ccc([N+](=O)[O-])cc3)cn12	inactive	12.5 µM		5.7			517 µM	108 µM	
O=c1n([C@H]2CO[C@@H](CO)O2)cc(F)c2nc(CO)cn12		15.1 µM	16	36	29.1 µM	66.6 µM	1060 µM	33.3 µM	
